Data as given in publication PMC3753236, “Glucocorticosteroids in Nano-Sterically Stabilized Liposomes Are Efficacious for Elimination of the Acute Symptoms of Experimental Cerebral Malaria” (PLoS ONE, 2013).

Assays:
[1] = test system: non-chloroquine resistant P. falciparum; assay: P. falciparum culture, 3H-hypoxanthine incorporation; assay type: cell-based, Plasmodium falciparum; settings: at concentrations up to 33 µM
Description: The parasite was grown in a human red blood cell culture (RPMI 1640, 7.5% bicarbonate, 50 µM hypoxanthine, 50 µg/ml gentamycin, and 7.5% human plasma) at 1% hematocrit and 2% parasitemia. Cultures containing predominantly ring forms were used; synchronization of the culture was performed if trophozoites represented more than 1–2% of the various developmental stages. Briefly, the culture was centrifuged and the supernatant replaced by 5% (isotonic) sorbitol. After 5 minutes at 37°C the culture was centrifuged again and the supernatant replaced by culture medium to obtain a final 1% hematocrit.
Drug testing was performed in 96-well microtiter plates incubated at 37°C in a 5% O2, 5% CO2, and 90% N2 gas mixture for 72 hours. After 48 hours, 1 µCi ^3H-hypoxanthine was added to each well and the plates were read the next day using a scintillation counter.

[2] = test system: inflammation-related genes (CCL5, CXCL9, CXCL10, ICAM-1, IFNγ, IL-4); assay: Brain expression of inflammation-related genes by qPCR; assay type: in vivo, C57Bl/6 mice; settings: day 9 p.i., treatment days 3, 5, 7, 9 p.i., relative to non-infected mice, normalized to HPRT
Description: For total RNA extraction, samples were homogenized in Tri-reagent (Sigma) and the homogenate separated into aqueous and organic phases by chloroform addition and centrifugation. RNA was precipitated from the aqueous phase by addition of isopropanol, washed with ethanol, and solubilized in UPW.
cDNA synthesis was performed using a High Capacity cDNA Reverse Transcription kit (Applied Biosystems, Warrington, UK). cDNA was amplified from 1 µg RNA from each sample with the addition of 2 µl Multiscribe™ reverse transcriptase (RT), 2 µl RNAse inhibitor, 4 µl random primers, 4 µl RT buffer, and 1.6 µl dNTP's according to the manufacturer's instructions for first-strand cDNA synthesis. UPW was added for a final sample volume of 20 µl. cDNA samples were stored at −20°C.
Real-time transcription-polymerase chain reaction (rtPCR) was carried out using Applied Biosystems' 9800 Fast Thermal Cycler. The reaction mix for rtPCR analysis consisted of 1 µl cDNA, 300 nM forward (f) and reverse (r) primers (Syntezza, Jerusalem, Israel), and 7.5 µl manufactured master mix buffer containing nucleotides, Taq polymerase, and SYBR Green (Applied Biosystems) in a total volume of 15 µl. Gene amplification included one stage of 10 min at 95°C followed by 40 cycles of a two-step loop: 20 s at 95°C, and 1 min at 60°C. The fold-change in gene expression was normalized to the endogenous gene hypoxanthine phosphoribosyltransferase (HPRT). […] Results were considered significant if the observed fold-change was at least ×2 relative to non-infected mice. Primer sequences (5′-3′) were as follows: CCL5: […] (f), […] (r); ICAM-1: […] (f); […] (r); IFN-γ: […] (f), […] (r); IL-4: […] (f), […] (r); CXCL9: […] (f), […] (r); CXCL10: […] (f), […] (f), […] (r).

[3] = other disease models; ref [5]; cited from earlier work
[4] = test system: Plasmodium berghei ANKA (PbAus); assay: Early treatment of ECM, PbAus-inoculated C57Bl/6 mice (with sequential artemisone); settings: for Death: ECM (number of mice) / Death: Severe anemic malaria (number of mice) / Death: Toxicity (number of mice) / Death: ECM (%) / Death: Severe anemic malaria (%) / Average clinical score (±SEM): days 3, 5, 7, 9 p.i.; for Death: ECM (%) / Death: Severe anemic malaria (%): excludes acute toxicity deaths; for Average clinical score (±SEM): 11 days post-inoculation; for % survival / Group score: 20 mg/kg (Fig 6 legend)
Description: (§1) Plasmodium berghei ANKA (PbA; PbA MRA-311, CDC, Atlanta, GA, USA) was maintained in vivo by serial transfer of parasitized erythrocytes (PE) from infected to naïve mice. Experiments were also performed using a second strain of PbA, similarly maintained, and designated PbAus in the text (courtesy of Prof. G. Grau, University of Sydney, Australia).
(§2) Parasitemia was monitored by thin blood smears prepared from tail blood. These were stained with a 25% Giemsa solution, examined under a light microscope, and parasitemia determined as the percent of infected red blood cells per 10,000 erythrocytes. Disease severity was determined according to scoring of neurological symptoms and changes in weight and temperature, as previously described […] Parasitemias above 20% and the absence of neurological symptoms indicated severe anemic malaria.
(§3) For early ECM treatment, injections were given on days 3, 5, 7, and 9 p.i; for late treatment, treatment was given every other day, starting on day 5 p.i. for a total of at least two injections. Infected, non-treated control mice were injected with 5% dextrose or empty nSSL. Clinical signs and parasitemias were monitored and disease severity scored as described […] At each time-point, at least 3 mice from each group were chosen at random, deeply anesthetized, and brains were removed following intracardial perfusion (using saline, if organs were destined for real-time (rt)PCR analysis, or saline/formalin, if organs were destined for histopathological analysis). Organs destined for rtPCR analysis were snap-frozen in liquid nitrogen and stored at −80°C until use. Organs destined for immunohistology were immediately immersed in cryoprotectant solution (see below).

[5] = test system: Plasmodium berghei ANKA (PbAus); assay: Late-stage treatment of ECM followed by artemisone, PbAus-infected C57Bl/6 mice
Description: as §1, §2, §3

[6] = day 5 p.i., treatment days 3, 5, 7, 9 p.i.
[7] = day 9 p.i., treatment days 3, 5, 7, 9 p.i.

**Q.** With `C[C@H]1C[C@H]2[C@@H]3CCC4=CC(=O)C=C[C@]4(C)[C@@]3(F)[C@@H](O)C[C@]2(C)[C@@]1(O)C(=O)COC(=O)CCC(=O)O` [BMS, β-methasone hemisuccinate] as the molecule, how does the “IC50 (effect against cultured P. falciparum)” value [1] read?
**A.** no effect ^*

**Q.** And the “IC50 (effect against cultured P. falciparum)” value ([1]; listed as Free BMS)?
**A.** not effective

**Q.** What about the “CCL5 relative expression ± SEM” value [2] of the same molecule?
**A.** 45.7±7.6

**Q.** What about the “CXCL9 relative expression ± SEM” value [2] of the same molecule?
**A.** 39.3±11.1

**Q.** And the “CXCL10 relative expression ± SEM” value [2]?
**A.** 18.2±2.4

**Q.** And the “ICAM-1 relative expression ± SEM” value [2]?
**A.** 3.3±0.7

**Q.** What about the “IFNγ relative expression ± SEM” value [2] of the same molecule?
**A.** 105.1±37.7

**Q.** And the “IL-4 relative expression ± SEM” value [2]?
**A.** 1.5±0.3

**Q.** And the “Potency of BMS relative to MPS” value [3]?
**A.** five

**Q.** What about the “Death: ECM (number of mice)” value ([4]; 5 mg/kg i.v.) of the same molecule?
**A.** 5

**Q.** What about the “Death: Severe anemic malaria (number of mice)” value ([4]; 5 mg/kg i.v.) of the same molecule?
**A.** 1

**Q.** What about the “Death: Toxicity (number of mice)” value ([4]; 5 mg/kg i.v.) of the same molecule?
**A.** 3

**Q.** And the “Death: ECM (%)” value ([4]; 5 mg/kg i.v.)?
**A.** (83%)

**Q.** What about the “Death: Severe anemic malaria (%)” value ([4]; 5 mg/kg i.v.) of the same molecule?
**A.** (16%)

**Q.** And the “Death: ECM (number of mice)” value ([4]; 10 mg/kg i.v.)?
**A.** 9

**Q.** What about the “Death: Severe anemic malaria (number of mice)” value ([4]; 10 mg/kg i.v.) of the same molecule?
**A.** 1

**Q.** What about the “Death: Toxicity (number of mice)” value ([4]; 10 mg/kg i.v.) of the same molecule?
**A.** 3

**Q.** What about the “Death: ECM (%)” value ([4]; 10 mg/kg i.v.) of the same molecule?
**A.** (90%)

**Q.** What about the “Death: Severe anemic malaria (%)” value ([4]; 10 mg/kg i.v.) of the same molecule?
**A.** (10%)

**Q.** What about the “Average clinical score (±SEM)” value ([4]; 10 mg/kg) of the same molecule?
**A.** 7.5±1.6

**Q.** What about the “Death: ECM (number of mice)” value ([4]; 20 mg/kg i.v.) of the same molecule?
**A.** 9

**Q.** And the “Death: Severe anemic malaria (number of mice)” value ([4]; 20 mg/kg i.v.)?
**A.** 3

**Q.** What about the “Death: Toxicity (number of mice)” value ([4]; 20 mg/kg i.v.) of the same molecule?
**A.** 5

**Q.** And the “Death: ECM (%)” value ([4]; 20 mg/kg i.v.)?
**A.** (75%)

**Q.** And the “Death: Severe anemic malaria (%)” value ([4]; 20 mg/kg i.v.)?
**A.** (25%)

**Q.** And the “Survival rate on day 13 p.i., at the end of the cerebral phase” value ([4]; 20 mg/kg on days 3, 5, 7, 9 p.i., listed as free BMS)?
**A.** 12%

**Q.** What about the “Average clinical score (±SEM)” value ([4]; 20 mg/kg) of the same molecule?
**A.** 12.3±2.4

**Q.** And the “% survival” value [4, 6]?
**A.** 100%

**Q.** And the Group score [4, 6]?
**A.** 1.3±1.1

**Q.** What about the “% survival” value [4, 7] of the same molecule?
**A.** 47%

**Q.** And the Group score [4, 7]?
**A.** 8.4 ±1.7

**Q.** And the “Incidence of ECM” value ([4]; treatment days 3, 5, 7, 9 p.i., as quoted with the gene expression study)?
**A.** 75%

**Q.** What about the “Mice that died of acute toxicity” value ([5]; 20 mg/kg on days 5, 7, 9 p.i., upon second or third injection) of the same molecule?
**A.** 6/10

**Q.** What about the “Average clinical score on day 7 p.i.” value ([5]; 20 mg/kg, treatment started day 5 p.i.) of the same molecule?
**A.** 4.2±2.2
